{
  "source": "patent US9393251B2",
  "about": "“Compositions and methods for treating severe thrombocytopenia related disease” (priority 2013, dated 2016)",
  "key": {"[1]": {"experiment": "Side effects of high-dose Vitamin D in the two ITP patients", "assay_type": "in vivo, human", "description": "The patient's platelet count was 215,000/mm^3 six weeks after discontinuing prednisone, indicating a regimen of hydroxychloroquine at a dose of 200 mg twice a day and Vitamin D at a dose of 50,000 IU once a week was sufficient to maintain a stable count. The patient remained stable without the administration of prednisone.\nIn the above examples, an association between vitamin D deficiency and immune thrombocytopenia in two patients is described. Both patients had SLE and/or Sjögren's overlap with positive serology and profound life-threatening thrombocytopenia, all of which were unaffected by conventional therapies. […] After discontinuation of supplemental Vitamin D in one patient (Example 1), the 25-OH Vitamin D normalized, but the platelet count subsequently plummeted. Resuming vitamin D supplementation restored the platelet count to the previous normal range."}, "[2]": {"tested_on": "multiple sclerosis in the murine model", "details": "Cantorna 1996; Pedersen 2007; cited from earlier work"}, "IL-6 and IL-2": {"tested_on": "IL-6 and IL-2", "details": "Muller et al. 1991; cited from earlier work"}, "[3]": {"tested_on": "rheumatoid arthritis, systemic lupus erythematosus and Sjögren's syndrome", "experiment": "Patients with rheumatoid arthritis, systemic lupus erythematosus and Sjögren's syndrome treated with the combination (Example 4)", "assay_type": "in vivo, human", "details": "after Vitamin D deficiency corrected with high dose Vitamin D replacement", "description": "Low levels of vitamin D have been implicated in a number of autoimmune disorders, such as rheumatoid arthritis, systemic lupus erythematosus, and Sjögren's syndrome. Patients with rheumatoid arthritis, systemic lupus erythematosus and Sjögren's syndrome were treated with a combination of weekly high doses of Vitamin D (50,000 IU) and daily doses of 400 mg of hydroxychloroquine."}},
  "data": [
    {"smiles": "C=C1/C(=C\\C=C2/CCC[C@]3(C)[C@@H]([C@H](C)CCCC(C)(C)O)CC[C@@H]23)C[C@@H](O)C[C@@H]1O", "note": "[Vitamin D, 1a,25-dihydroxy cholecalciferol]", "values": [
      {"measurement": "changes in calcium, phosphate, or creatinine levels", "setting": "[1]; Example 1 patient", "value": "no significant changes"},
      {"measurement": "untoward side effects", "setting": "[1]; both patients", "value": "neither patient experienced any untoward side effect"},
      {"measurement": "development of multiple sclerosis in the murine model", "setting": "[2]", "value": "can inhibit the development of multiple sclerosis"},
      {"measurement": "production of interleukin IL-6 and IL-2 in cell cultures", "setting": "IL-6 and IL-2", "value": "reduced"},
      {"measurement": "response to disease modifying anti-rheumatic drugs", "setting": "[3]", "value": "enhanced"}
    ]}
  ]
}
